Active and inactive are the calls of the source. The calls are words filed in the database; no cut-off is given here.

The assay relates to J774.1. In words: Inhibition of LPS-stimulated nitric oxide production in J774.1 cells. Format: functional, cell-based. The following applies: Mus musculus.
Take `CCCCCCCCCCCCCCC(CCCCCCCCCCCCCC)CO[C@@H]1O[C@H](CO)[C@@H](O[C@@H]2O[C@H](CO)[C@H](O)[C@H](O)[C@H]2O)[C@H](O[C@H]2O[C@H](C)[C@H](O)[C@H](O)[C@H]2O)[C@H]1NC(C)=O`: the outcome was Active. As for `CC(=O)N[C@H]1[C@H](O[C@H]2[C@H](O[C@H]3O[C@H](C)[C@H](O)[C@H](O)[C@H]3O)[C@@H](NC(C)=O)[C@H](OCC[Si](C)(C)C)O[C@@H]2CO)O[C@H](CO)[C@H](O)[C@@H]1O`, the outcome was Active. Take `CCCCCCCCCCCCCCC(CCCCCCCCCCCCCC)CO[C@@H]1O[C@H](CO)[C@@H](O[C@@H]2O[C@H](CO)[C@H](O)[C@H](O)[C@H]2NC(C)=O)[C@H](O[C@H]2O[C@H](C)[C@H](O)[C@H](O)[C@H]2O)[C@H]1NC(C)=O`: the outcome was Active. As to `CCCCCCCCCCCCCCC(CCCCCCCCCCCCCC)CO[C@@H]1O[C@H](CO)[C@@H](O[C@@H]2O[C@H](CO)[C@H](O)[C@H](O)[C@H]2NC(C)=O)[C@H](O[C@H]2O[C@@H](C)[C@@H](O)[C@@H](O)[C@@H]2O)[C@H]1NC(C)=O` (stereo in doubt), the outcome was Active.
